Measured values: patent publication US8859529B2, “Compounds for the treatment of inflammatory disorders” (Merck Sharp & Dohme Corp., priority 2008, dated 2014)

How the values were obtained:
[1] = system: TNF-α production from human whole blood; experiment: Inhibition of TNF-α production from human whole blood (hWBA); type: cell-based; conditions: human whole blood diluted 1:1, 1 h pre-incubation, LPS, 3.5 h, TNF-α by ELISA; N/A = Not Active
Experimental: The compounds' ability to inhibit TACE activity can also be determined in human whole blood using the assay conditions described n Example 15 below.
Human whole blood was diluted 1:1 with serum free medium (RPMI, L-glutamine, Pen-Strep, HEPES) and incubated with a test compound in a final volume of 360 μl for 1 h at 37° C. Forty microliters of LPS (10 μg/mL) was then added. Supernatant was collected after 3.5 h incubation and the concentration of TNF-α was determined by ELISA (R&D Systems). The concentration of the test compound which inhibits 50% of the amount of TNF-α from the untreated control was determined.

[2] = Area under the curve determinations of plasma levels in rats (rrAUC); type: in vivo; conditions: rapid rat AUC of the drug (parent) in plasma; oral 10 mg/kg, fasted rats, blood 0.5-6 h post-dosing
Experimental: To gain insight into the pharmacokinetic properties of the compounds of formula (I), plasma levels of the compounds in rats were determined according to the protocol described in Korfmacher, W. A,; Cox, K. A.; Ng, K. J.; Veals, J.; Hsieh, Y.; Wainhaus, S.; Broske, L; Prelusky, D.; Nomeir, A.; White, R. E. Rapid Commun. Mass Spectrorn, 2001, 15, 335. Briefly, rats, after an overnight fast, were dosed orally with the test compound at a dose of 10 mg/kg in a 5 mL/kg dose volume. Blood was collected at 0.5, 1, 2, 3, 4, and 6 h post-dosing. Mass spectrometry using high performance liquid chromatography was used to identify and measure the concentrations of the test compounds in the plasma at the various time points. The parent ion of each test compound was used to identify and quantitate the compounds in plasma.

| Compound | IC50 [1] [nM] | PK (rrAUC) parent [2] |
| --- | --- | --- |
| CCN1CCN(c2ccc3oc([C@]4(CN5Cc6ccc(OC)c(F)c6C5=O)NC(=O)N(COC(=O)C(C)(C)C)C4=O)cc3n2)CC1 [Compound 3] | 61 | 19953 nM·h |
| COc1ccc2c(c1F)C(=O)N(C[C@@]1(c3cc4nc(N5CCN(C)CC5)ccc4o3)NC(=O)N(COC(=O)C(C)(C)C)C1=O)C2 [Compound 4] | 92 | 8621 nM·h |
| COc1ccc2c(c1F)C(=O)N(C[C@@]1(c3cc4nc(N5CCNC(=O)C5)ccc4o3)NC(=O)N(COC(=O)C(C)(C)C)C1=O)C2 [Compound 5] | 104 | 121 nM·h |
| COc1ccc2c(c1F)C(=O)N(C[C@@]1(c3cc4nc(N5CCC5=O)ccc4o3)NC(=O)N(COC(=O)C(C)(C)C)C1=O)C2 [Compound 6] | 447 | 2283 nM·h |
| COc1ccc2c(c1F)C(=O)N(C[C@@]1(c3cc4nc(N5C(=O)CCC5C)ccc4o3)NC(=O)N(COC(=O)C(C)(C)C)C1=O)C2 (stereo partly shown) [Compound 9] | 192 | 4557 nM·h |
| COc1ccc2c(c1)C(=O)N(C[C@@]1(c3cc4nc(N5C(=O)CCC5C)ccc4o3)NC(=O)N(COC(=O)C(C)(C)C)C1=O)C2 (stereo partly shown) [Compound 10] | 266 | 1202 nM·h |
| COc1ccc2c(c1F)C(=O)N(C[C@@]1(c3cc4c(C)nccc4o3)NC(=O)N(COC(=O)C(C)(C)C)C1=O)C2 [Compound 11] | 235 | 1827 nM·h |
| COc1ccc2c(c1F)C(=O)N(C[C@@]1(c3cc4cnc(C)cc4o3)NC(=O)N(COC(=O)C(C)(C)C)C1=O)C2 [Compound 12] | 187 | 45,213 nM · h |
| COc1ccc2c(c1)C(=O)N(C[C@@]1(C#Cc3ccc4c(=O)[nH][nH]c4c3)NC(=O)N(COC(=O)C(C)(C)C)C1=O)C2 [Compound 13] | 213 | 0 nM·h |
| COc1ccc2c(c1F)C(=O)N(C[C@@]1(C#Cc3ccc4c(=O)[nH][nH]c4c3)NC(=O)N(COC(=O)C(C)(C)C)C1=O)C2 [Compound 14] | 275 | 0 nM·h |
| COc1ccc2c(c1)C(=O)N(C[C@@]1(C#Cc3ccc(C(N)=O)cc3)NC(=O)N(COC(=O)C(C)(C)C)C1=O)C2 [Compound 15] | 188 | 0 nM·h |
| COc1ccc2c(c1F)C(=O)N(C[C@@]1(c3cc4nc(-c5cn[nH]c5)ccc4o3)NC(=O)N(COC(=O)C(C)(C)C)C1=O)C2 [Compound 16] | 141 | 249 nM·h |
| COc1ccc2c(c1)C(=O)N(C[C@@]1(c3cc4nc(-c5c(C)nn(C)c5C)ccc4o3)NC(=O)N(COC(=O)C(C)(C)C)C1=O)C2 [Compound 17] | 626 | 2005 nM·h |
| COc1ccc2c(c1F)C(=O)N(C[C@@]1(c3cc4nc(N)ccc4o3)NC(=O)N(COC(=O)C(C)(C)C)C1=O)C2 [Compound 18] | 178 | 351 nM·h |
| COc1ccc2c(c1F)C(=O)N(C[C@@]1(c3cc4ncc(C(N)=O)cc4o3)NC(=O)N(COC(=O)C(C)(C)C)C1=O)C2 [Compound 19] | 101 | 94 nM·h |
| COc1ccc2c(c1)C(=O)N(C[C@@]1(c3cc4nc(N5CCCNC5=O)ccc4o3)NC(=O)N(COC(=O)C(C)(C)C)C1=O)C2 [Compound 20] | 282 | 148 nM·h |
| COc1ccc2c(c1)C(=O)N(C[C@@]1(c3cc4nc(N5CC[C@@H](O)C5)ccc4o3)NC(=O)N(COC(=O)C(C)(C)C)C1=O)C2 [Compound 21] | 339 | 2684 nM·h |
| COc1ccc2c(c1F)C(=O)N(C[C@@]1(c3cc4c(OC(C)=O)nccc4o3)NC(=O)N(COC(=O)C(C)(C)C)C1=O)C2 [Compound 22] | 2820 | 823 nM·h |
| CCN1CCN(c2ccc3oc([C@]4(CN5Cc6ccc(OC)cc6C5=O)NC(=O)N(COC(=O)C(C)(C)C)C4=O)cc3n2)CC1 [Compound 24] | 176 | 655 nM·h |

| Compound | IC50 [1] [nM] | PK (rrAUC) parent [2] |
| --- | --- | --- |
| COc1ccc2c(c1)C(=O)N(C[C@@]1(C#Cc3ccc(N4CCNCC4)cc3)NC(=O)N(COC(=O)C(C)(C)C)C1=O)C2 [Compound 25] | 212 | 0 nM·h |
| COc1ccc2c(c1)C(=O)N(C[C@@]1(c3cc4nc(NS(C)(=O)=O)ccc4o3)NC(=O)N(COC(=O)C(C)(C)C)C1=O)C2 [Compound 26] | 645 | 0 nM·h |
| COc1ccc2c(c1)C(=O)N(C[C@@]1(c3cc4cc(-c5cc(=O)[nH]c(N)n5)ccc4o3)NC(=O)N(COC(=O)C(C)(C)C)C1=O)C2 [Compound 27] | 940 | 0 nM·h |
| COc1ccc2c(c1)C(=O)N(C[C@@]1(c3cc4nc(N5CCNCC5)ccc4o3)NC(=O)N(COC(=O)C(C)(C)C)C1=O)C2 [Compound 28] | 156 | 0 nM·h |
| COc1ccc2c(c1F)C(=O)N(C[C@@]1(c3cc4cc(-c5cc(=O)[nH]c(N)n5)ccc4o3)NC(=O)N(COC(=O)C(C)(C)C)C1=O)C2 [Compound 29] | 199 | 0 nM·h |
| COc1ccc2c(c1)C(=O)N(C[C@@]1(c3cc4nc(N5C[C@H](O)CC5=O)ccc4o3)NC(=O)N(COC(=O)C(C)(C)C)C1=O)C2 [Compound 31] | 224 | 334 nM·h |
| COc1ccc2c(c1)C(=O)N(C[C@@]1(c3cc4cc(-c5cc(=O)[nH]c(N)n5)cnc4o3)NC(=O)N(COC(=O)C(C)(C)C)C1=O)C2 [Compound 33] | 375 | 0 nM·h |
| COc1ccc2c(c1)C(=O)N(C[C@@]1(c3cc4nc(Nc5cccnc5)ccc4o3)NC(=O)N(COC(=O)C(C)(C)C)C1=O)C2 [Compound 34] | 1330 | 94 nM·h |
| COc1ccc2c(c1)C(=O)N(C[C@@]1(c3cc4cnccc4o3)NC(=O)N(COC(=O)[C@H](N)C(C)C)C1=O)C2 [Compound 35.3] | 244 | 4316 nM·h |
| COc1ccc2c(c1F)C(=O)N(C[C@@]1(C#Cc3cncc(NC(=O)C4CCN(C)CC4)c3)NC(=O)N(COC(=O)C(C)(C)C)C1=O)C2 [Compound 36] | 171 | 0 nM·h |
| COc1ccc2c(c1F)C(=O)N(C[C@@]1(c3cc4nc(N5C[C@H](O)CC5=O)ccc4o3)NC(=O)N(COC(=O)C(C)(C)C)C1=O)C2 [Compound 37] | 148 | 0 nM·h |
| COc1ccc2c(c1F)C(=O)N(C[C@@]1(c3cc4nc(N5C[C@@H](O)CC5=O)ccc4o3)NC(=O)N(COC(=O)C(C)(C)C)C1=O)C2 [Compound 38] | 94 | 1736 nM·h |
| CCOc1ccc2c(c1F)C(=O)N(C[C@@]1(c3cc4nc(N5CCN(CC)CC5)ccc4o3)NC(=O)N(COC(=O)C(C)(C)C)C1=O)C2 [Compound 39] | 241 | 927 nM·h |
| COc1ccc2c(c1)C(=O)N(C[C@@]1(C#Cc3ccc(-c4nc(-c5cnn(C)c5)ccc4OC(=O)C(C)(C)C)cc3)NC(=O)N(COC(=O)C(C)(C)C)C1=O)C2 [Compound 43] | 336 | 0 nM·h |
| COc1ccc2c(c1F)C(=O)N(C[C@@]1(C#Cc3ccc(-c4nc(-c5cnn(C)c5)ccc4OC(=O)C(C)(C)C)c(F)c3)NC(=O)N(COC(=O)C(C)(C)C)C1=O)C2 [Compound 44] | 281 | 0 nM·h |
| COc1ccc2c(c1)C(=O)N(C[C@@]1(c3cc4ncccc4o3)NC(=O)N(C(C)C)C1=O)C2 [Compound 51] | 7150 | 370 nM·h |
| COc1ccc2c(c1)C(=O)N(C[C@@]1(c3cc4cnccc4o3)NC(=O)N(COC(=O)OC3CCOCC3)C1=O)C2 [Compound 59] | 184 | 13539 nM·h |
| COc1ccc2c(c1)C(=O)N(C[C@@]1(c3cc4cnccc4o3)NC(=O)N(C(C)OC(=O)OC3CCOCC3)C1=O)C2 (stereo partly shown) [Compound 61] | 685 | 0 nM·h |
| COc1ccc2c(c1)C(=O)N(C[C@@]1(c3cc4cnccc4o3)NC(=O)N(COC(=O)OC(C)C)C1=O)C2 [Compound 62] | 250 | 0 nM·h |
